Data on 44 molecules can be found in patent US9969687B2, “Compounds useful as CCR9 modulators” (Norgine B.V., priority 2013, dated 2018).

The pKi is the Ki on a negative log10 scale, so that one unit is a factor of ten.

Molecules are shown by their SMILES. pKi: −log10 of the molar value.

The target of assay [1] is T1, CCR9 (Homo sapiens (Human), UniProt P51686). Briefly: FLIPR calcium flux assay using MOLT4 cells, TECK stimulation. It counts as cell-based. The following applies: MOLT4 cells (human T-cell line). In a few lines: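 MOLT4 cells in HBSS/20 mM HEPES with probenecid, Fluo-4 NW loaded, preincubated with compound (10 μM-0.1 nM final, half-log) for 60 min before TECK stimulation. Calcium rise read on FLIPR; IC50 from four-parameter fit, converted to Ki using TECK concentration and same-day TECK EC50.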
T1 sequence (P51686 whole entry): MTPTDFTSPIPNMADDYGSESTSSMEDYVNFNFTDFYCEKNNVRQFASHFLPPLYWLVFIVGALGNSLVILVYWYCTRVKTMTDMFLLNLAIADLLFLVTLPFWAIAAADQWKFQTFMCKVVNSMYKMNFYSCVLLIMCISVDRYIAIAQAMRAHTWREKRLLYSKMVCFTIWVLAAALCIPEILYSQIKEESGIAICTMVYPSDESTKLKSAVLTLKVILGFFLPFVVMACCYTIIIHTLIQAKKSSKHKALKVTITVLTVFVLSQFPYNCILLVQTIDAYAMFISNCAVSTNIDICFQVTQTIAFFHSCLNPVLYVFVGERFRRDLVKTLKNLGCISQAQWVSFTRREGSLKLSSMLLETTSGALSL

The target of assay [2] is T1, CCR9. The experiment in a line: FLIPR calcium flux assay using hCCR9 over expressed cells (Chem1-hCCR9), TECK stimulation. It counts as cell-based. The following applies: Chem1-hCCR9 overexpressing cells. The protocol: Biological Activity: FLIPR Assay Using hCCR9 Over Expressed Cells
A calcium flux assay was used to determine the ability of the compounds to interfere with the binding between CCR9 and its chemokine ligand (TECK) in Chem1-hCCR9 overexpressing cells. hCCR9 overexpressing cells were seeded (25,000 cells/well) into black Poly-D-Lysine coated clear bottom 96-well plates (BD Biosciences, Cat #356640) and incubated overnight at 37° C./5% CO2 in a humidified incubator. Media was aspirated and cells washed twice with 100 μL assay buffer (1×HBSS, 20 mM HEPES) containing 2.5 mM Probenecid. A 0.3× Fluo-4 NW calcium dye was prepared in assay buffer containing 5 mM Probenecid and stored in the dark. Each well was loaded with 100 μL of 0.3× Fluo-4 NW calcium dye and incubated at 37° C./5% CO2 for 60 minutes and then at room temperature for 30 minutes. A half-log serially diluted concentration response curve was prepared at a 3× final assay concentration for each compound (10 μM-0.1 nM final assay concentration) and 50 μL of the compound then transferred to the cells (150 μL final volume) for 60 minutes prior to stimulation (30 minutes at 37° C./5% CO2 and 30 minutes at room temperature). TECK was diluted to 4× its EC80 in assay buffer (containing 0.1% [w/v] bovine serum albumin [BSA]) and 50 μL dispensed through the fluorometric imaging plate reader (FLIPR) instrument to stimulate the cells (200 μL final volume). The increase in intracellular calcium levels was measured with the FLIPR instrument. The potency of the compound as a CCR9 antagonist was calculated as an IC50 using GraphPad Prism software (variable slope four parameter). The Ki of the compound was determined from the IC50 values using the following equation. IC50/1+(Agonist (TECK) conc. used in assay/EC50 of agonist (TECK) generated on day of experiment) Ki calculation: […]
(Calcium flux is commonly read through the fluorescence of an indicator in the cells.)

For `COc1cc(C#N)cc(N2C(=O)c3c(Cl)ccc(NS(=O)(=O)c4ccc(C(C)(C)C)cc4)c3C2=O)c1` [Compound 190], the pKi at CCR9 [1] was 7.62; on CCR9 [2], 7.09.
For `CC(C)(C)c1ccc(S(=O)(=O)Nc2ccc(Cl)c3c2C(=O)N(Cc2ccccn2)C3=O)cc1` [Compound 191] the same measures were 7.70 and 7.48.
On the same counts, the results for `Cn1cncc1N1C(=O)c2c(Cl)ccc(NS(=O)(=O)c3ccc(C(C)(C)C)cc3)c2C1=O` [Compound 192] are 8.40 and 7.92.
For `Cn1ccc(CN2C(=O)c3c(Cl)ccc(NS(=O)(=O)c4ccc(C(C)(C)C)cc4)c3C2=O)n1` [Compound 193] the same measures were 7.80 and 7.68.
`COc1c(N2C(=O)c3c(Cl)ccc(NS(=O)(=O)c4ccc(C(C)(C)C)cc4)c3C2=O)ccc[n+]1[O-]` [Compound 194]: the pKi at CCR9 [1] was 8.40; at CCR9 [2] it was 8.22.
On the same counts, the results for `CC(C)(C)c1ccc(S(=O)(=O)Nc2ccc(Cl)c3c2C(=O)N(Cc2cncc(C#N)c2)C3=O)cc1` [Compound 195] are 7.51 and 7.38.
`CC(Cc1cccnc1)N1C(=O)c2c(Cl)ccc(NS(=O)(=O)c3ccc(C(C)(C)C)cc3)c2C1=O` (stereo not shown) [Compound 196]: the pKi on CCR9 [1] was 7.34; on CCR9 [2], 6.99.
For `CCOc1cc(N2C(=O)c3c(Cl)ccc(NS(=O)(=O)c4ccc(C(C)(C)C)cc4)c3C2=O)c[n+]([O-])c1` [Compound 197] the same measures were 7.68 and 7.40.
On the same counts, the results for `CC(C)(C)c1ccc(S(=O)(=O)Nc2ccc(Cl)c3c2C(=O)N(Cc2cccc[n+]2[O-])C3=O)cc1` [Compound 199] are 8.22 and 8.00.
On the same counts, the results for `CC(C)(C)c1ccc(S(=O)(=O)Nc2ccc(Cl)c3c2C(=O)N(c2cc(C#N)ccn2)C3=O)cc1` [Compound 200] are 7.35 and 7.04.
Consider `CC(C)(C)c1ccc(S(=O)(=O)Nc2ccc(Cl)c3c2C(=O)N(Cc2ccncc2)C3=O)cc1` [Compound 201], for which the pKi on CCR9 [1] is 8.10; at CCR9 [2], 7.77.
`COc1cccnc1N1C(=O)c2c(Cl)ccc(NS(=O)(=O)c3ccc(C(C)(C)C)cc3)c2C1=O` [Compound 202]: the pKi on CCR9 [1] was 7.66; on CCR9 [2] it was 7.31.
On the same counts, the results for `CC(C)(C)c1ccc(S(=O)(=O)Nc2ccc(Cl)c3c2C(=O)N(c2cccnn2)C3=O)cc1` [Compound 203] are 7.42 and 7.23.
On the same counts, the results for `CC(C)(C)c1ccc(S(=O)(=O)Nc2ccc(Cl)c3c2C(=O)N(Cc2ncccn2)C3=O)cc1` [Compound 204] are 8.15 and 7.52.
For `CC(C)(C)c1ccc(S(=O)(=O)Nc2ccc(Cl)c3c2C(=O)N(c2cccc(C#N)n2)C3=O)cc1` [Compound 207] the same measures were 7.52 and 7.44.
As for `Cc1ccncc1CN1C(=O)c2c(Cl)ccc(NS(=O)(=O)c3ccc(C(C)(C)C)cc3)c2C1=O` [Compound 208], the pKi at CCR9 [1] is 7.62; at CCR9 [2], 7.80.
`CC(C)(C)c1ccc(S(=O)(=O)Nc2ccc(Cl)c3c2C(=O)N(Cc2cc[n+]([O-])cc2)C3=O)cc1` [Compound 209]: the pKi is 7.52 at CCR9 [1] and 7.11 on CCR9 [2].
For `COc1ccc[n+]([O-])c1N1C(=O)c2c(Cl)ccc(NS(=O)(=O)c3ccc(C(C)(C)C)cc3)c2C1=O` [Compound 211] the same measures were 7.48 and 7.21.
For `COc1cncc(CN2C(=O)c3c(Cl)ccc(NS(=O)(=O)c4ccc(C(C)(C)C)cc4)c3C2=O)c1` [Compound 212] the same measures were 7.23 and 7.22.
For `Cc1cc[n+]([O-])cc1CN1C(=O)c2c(Cl)ccc(NS(=O)(=O)c3ccc(C(C)(C)C)cc3)c2C1=O` [Compound 213] the same measures were 7.92 and 7.64.
For `Cc1cc(N2C(=O)c3c(Cl)ccc(NS(=O)(=O)c4ccc(C(C)(C)C)cc4)c3C2=O)c[n+]([O-])c1` [Compound 214], the pKi was 7.70 on CCR9 [1] and 7.28 at CCR9 [2].
On the same counts, the results for `Cc1ccnc(N2C(=O)c3c(Cl)ccc(NS(=O)(=O)c4ccc(C(C)(C)C)cc4)c3C2=O)n1` [Compound 216] are 7.64 and 7.31.
For `Cc1cnc(N2C(=O)c3c(Cl)ccc(NS(=O)(=O)c4ccc(C(C)(C)C)cc4)c3C2=O)s1` [Compound 217] the same measures were 7.46 and 7.41.
On the same counts, the results for `CC(C)(C)c1ccc(S(=O)(=O)Nc2ccc(Cl)c3c2C(=O)N(c2cccnc2F)C3=O)cc1` [Compound 218] are 8.15 and 7.59.
Take `CC(C)(C)c1ccc(S(=O)(=O)Nc2ccc(Cl)c3c2C(=O)N(c2ccc(F)cn2)C3=O)cc1` [Compound 219]: the pKi at CCR9 [1] is 8.00; at CCR9 [2] it was 7.52.
On the same counts, the results for `Cc1cncc(N2C(=O)c3c(Cl)ccc(NS(=O)(=O)c4ccc(C(C)(C)C)cc4)c3C2=O)n1` [Compound 220] are 7.92 and 7.38.
On the same counts, the results for `CC(C)(C)c1ccc(S(=O)(=O)Nc2ccc(Cl)c3c2C(=O)N(c2ccccn2)C3=O)cc1` [Compound 222] are 8.22 and 7.92.
As for `Cc1ccc(N2C(=O)c3c(Cl)ccc(NS(=O)(=O)c4ccc(C(C)(C)C)cc4)c3C2=O)c(C)n1` [Compound 224], the pKi on CCR9 [1] was 8.30; on CCR9 [2], 8.22.
Take `Cc1ccnc(N2C(=O)c3c(Cl)ccc(NS(=O)(=O)c4ccc(C(C)(C)C)cc4)c3C2=O)c1` [Compound 225]: the pKi on CCR9 [1] is 7.27; on CCR9 [2] it was 7.29.
For `Cc1ccc(N2C(=O)c3c(Cl)ccc(NS(=O)(=O)c4ccc(C(C)(C)C)cc4)c3C2=O)nc1` [Compound 226] the same measures were 7.68 and 7.64.
For `Cc1ccc(N2C(=O)c3c(Cl)ccc(NS(=O)(=O)c4ccc(C(C)(C)C)cc4)c3C2=O)c(C)[n+]1[O-]` [Compound 227] the same measures were 7.85 and 7.49.
For `Cc1cccc(N2C(=O)c3c(Cl)ccc(NS(=O)(=O)c4ccc(C(C)(C)C)cc4)c3C2=O)n1` [Compound 228] the same measures were 8.30 and 8.22.
Consider `Cc1ccc(N2C(=O)c3c(Cl)ccc(NS(=O)(=O)c4ccc(C(C)(C)C)cc4)c3C2=O)[n+]([O-])c1` [Compound 229], for which the values for the negative logarithm of the Ki (pKi) on CCR9 [1] and on CCR9 [2] were 7.34 and 7.20, respectively.
For `COc1ccc(N2C(=O)c3c(Cl)ccc(NS(=O)(=O)c4ccc(C(C)(C)C)cc4)c3C2=O)c(OC)n1` [Compound 230] the same measures were 8.10 and 8.22.
For `COc1cc(CN2C(=O)c3c(Cl)ccc(NS(=O)(=O)c4ccc(C(C)(C)C)cc4)c3C2=O)c[n+]([O-])c1` [Compound 231] the same measures were 7.30 and 7.05.
On the same counts, the results for `CC(C)(C)c1ccc(S(=O)(=O)Nc2ccc(Cl)c3c2C(=O)N(c2ccsc2C#N)C3=O)cc1` [Compound 232] are 8.15 and 8.52.
As for `Cc1cccc(N2C(=O)c3c(Cl)ccc(NS(=O)(=O)c4ccc(C(C)(C)C)cc4)c3C2=O)[n+]1[O-]` [Compound 233], the values for the pKi at CCR9 [1] and on CCR9 [2] were 7.72 and 7.68, respectively.
On the same counts, the results for `Cn1nnc(N2C(=O)c3c(Cl)ccc(NS(=O)(=O)c4ccc(C(C)(C)C)cc4)c3C2=O)n1` [Compound 234] are 7.35 and 7.37.
On the same counts, the results for `COc1ccc(CN2C(=O)c3c(Cl)ccc(NS(=O)(=O)c4ccc(C(C)(C)C)cc4)c3C2=O)cn1` [Compound 235] are 6.91 and 7.03.
For `Cc1ccc(N2C(=O)c3c(Cl)ccc(NS(=O)(=O)c4ccc(C(C)(C)C)cc4)c3C2=O)nn1` [Compound 236] the same measures were 7.29 and 7.49.
Turning to `COc1nccc(C)c1N1C(=O)c2c(Cl)ccc(NS(=O)(=O)c3ccc(C(C)(C)C)cc3)c2C1=O` [Compound 237], the pKi at CCR9 [1] is 7.55; at CCR9 [2], 8.05.
As for `COc1ccc(N2C(=O)c3c(Cl)ccc(NS(=O)(=O)c4ccc(C(C)(C)C)cc4)c3C2=O)c(C)n1` [Compound 238], the pKi on CCR9 [1] is 7.85; at CCR9 [2], 7.89.
For `CC(C)(C)c1ccc(S(=O)(=O)Nc2ccc(Cl)c3c2C(=O)N(Cc2ncccc2F)C3=O)cc1` [Compound 239] the same measures were 7.89 and 7.64.
Consider `CC(C)(C)c1ccc(S(=O)(=O)Nc2ccc(Cl)c3c2C(=O)N(Cc2c(F)ccc[n+]2[O-])C3=O)cc1` [Compound 241], for which the values for the pKi on CCR9 [1] and at CCR9 [2] were 8.30 and 8.15, respectively.
